For assay [1], the system named is platelet aggregation induced by PAF. Nature of the assay: Inhibition of platelet aggregation induced by PAF (rabbit platelet rich plasma, Born nephelometric technique). It is filed as cell-based, New Zealand albino rabbits. Particulars: concentration needed to inhibit platelet aggregation by 50%, PAF (C₁₈) 16 nM final, read-out: IC₅₀. The procedure: Inhibition of platelet aggregation induced by PAF.
The blood is obtained by cardiac puncture of male New Zealand albino rabbits (between 2 and 2.5 Kg of weight) and coagulation is prevented by adding 1 part of 3.16% sodium citrate dihydrate in 9 parts of blood. The platelet rich plasma (PRP) is prepared by blood centrifugation at 250xg for 10 min. at 4°C and it is diluted with platelet poor plasma (PPP) by additional centrifugation at 3000xg for 10 min. The amount of platelets is adjusted to […]. The platelet aggregation induced by PAF (C₁₈; prepared in our laboratory) (16 nM, final) is determined by the Born nephelometric technique (J. Physiol., 1962, 162 67) using a aggregometer Chrono-log 500.
The activities of the inhibitors are expressed as IC₅₀, that is to say the concentration of the drug needed to inhibit the platelet aggregation by 50%.

Assay [2] deals with hypotension induced by PAF. As to the kind of experiment: Inhibition of the hypotensive effect induced by PAF in normotense rats. The class given is in vivo, Sprage Dawley rats. The settings on record: Rattus norvegicus, iv; anesthetized male rats; compound given through the femoral vein 3 min before PAF (0.5 mcg/Kg, i.v.); average arterial pressure; read-out: IC₅₀. The protocol: Inhibition of the hypotensive effect induced by PAF in normotense rats. Male Sprage Dawley rats, of 180-220 g of weight, anesthetized with sodium pentobarbital (50 mg/Kg, i.p. 1 mL/100 g) have been used. In order to measure the average arterial pressure, a polyethylene catheter is introduced into the carotid artery. The arterial pressure is recorded with the help of a transducer connected with a R611 Beckman polygraph. The tested compounds are administered through the femoral vein 3 min before the injection of PAF (0.5 mcg/Kg, i.v.).

Like-named read-outs stand apart in the source and are kept apart here. Where only a bound is given, the exact number is not on record here.

As for `CCCCCCCCCCCCCCCCCNC(=O)OCC1COC(COC(=O)N(Cc2ccccn2)C(C)=O)O1` (centres unmarked) [Compound 22, 2-[N-Acetyl-N-[((5-heptadecylcarbamoyloxymethyl-1,3-dioxolane-2-yl)methoxy)carbonyl]aminomethyl] pyridine], in assay [1] (Oryctolagus cuniculus), the IC50 was below 50 nM. Further, the ED50 in assay [2] was below 0.05 mg/kg.
For `CCCCCCCCCCCCCCCCCC1COC(COC(=O)N(Cc2cccc[n+]2CC)C(C)=O)O1.[I-]` (centres unmarked) [Compound 3, 2-[N-Acetyl-N-[((5-heptadecyl-1,3-dioxolan-2-yl)methoxy)carbonyl]aminomethyl]-1-ethylpyridinium iodide], in that order: below 50 nM and 0.074 mg/kg.
On to `CCCCCCCCCCCCCCCCOCC1COC(COC(=O)N(Cc2cccc[n+]2CC)C(C)=O)O1.[I-]` (centres unmarked) [Compound 8, 2-[N-Acetyl-N-[((5-hexadecyloxymethyl-1,3-dioxolane-2-yl)methoxy)carbonyl]aminomethyl]-1-ethylpyridinium iodide], for which, in assay [1] (Oryctolagus cuniculus), the IC50 is below 50 nM. The ED50 in assay [2] was below 0.05 mg/kg.
For `CCCCCCCCCCCCCCCCCCOCC1COC(COC(=O)N(Cc2cccc[n+]2CC)C(C)=O)O1.[I-]` (centres unmarked) [Compound 14, 2-[N-Acetyl-N-[((5-octadecyloxymethyl-1,3-dioxolane-2-yl)methoxy)carbonyl]aminomethyl]-1-ethylpyridinium iodide], in that order: 110 nM and below 0.05 mg/kg.
For `CCCCCCCCCCCCCCCCOCC1COC(COC(=O)N(Cc2cccc[n+]2CC)C(=O)OCC)O1.[I-]` (centres unmarked) [Compound 11, 2-[N-Ethoxycarbonyl-N-[((5-hexadecyloxymethyl-1,3-dioxolane-2-yl)methoxy)carbonyl]aminomethyl]-1-ethylpyridinium iodide], the IC50 in assay [1] (Oryctolagus cuniculus) amounted to 140 nM. The ED50 in assay [2] was determined as 0.095 mg/kg.
For `CCCCCCCCCCCCCCOCC1COC(COC(=O)N(Cc2cccc[n+]2CC)C(C)=O)O1.[I-]` (centres unmarked) [Compound 17, 2-[N-Acetyl-N-[((5-tetradecyloxymethyl-1,3-dioxolane-2-yl)methoxy)carbonyl]aminomethyl]-1-ethylpyridinium iodide], in that order: 150 nM and 0.2 mg/kg.
For `CCCCCCCCCCCCCCCCOCC1COC(COC(=O)N(Cc2ccccn2)C(C)=O)O1.Cl` (centres unmarked) [Compound 6, 2-[N-Acetyl-N-[((5-hexadecyloxymethyl-1,3-dioxolane-2-yl)methoxy)carbonyl]aminomethyl] pyridine hydrochloride], the IC50 in assay [1] (Oryctolagus cuniculus) stood at 4000 nM. Further, the ED50 in assay [2] is above 5 mg/kg.
For `CCCCCCCCCCCCCCCCOCC1COC(COC(=O)N(Cc2cccc[n+]2C)C(C)=O)O1.[I-]` (centres unmarked) [Compound 7, 2-[N-Acetyl-N-[((5-hexadecyloxymethyl-1,3-dioxolane-2-yl)methoxy)carbonyl]aminomethyl]-1-methylpyridinium iodide], in that order: 1000 nM and 0.32 mg/kg.
The corresponding values for `CCCCCCCCCCCCCCCNC(=O)OCC1COC(COC(=O)N(Cc2cccc[n+]2CC)C(C)=O)O1.[I-]` (centres unmarked) [Compound 20, 2-[N-Acetyl-N-[((5-pentadecylcarbamoyloxymethyl-1,3-dioxolane-2-yl)methoxy)carbonyl]aminomethyl]-1-ethylpyridinium iodide] are below 50 nM and 0.093 mg/kg.
Turning to `CCCCCCCCCCCCCCCCOCC1COC(COC(=O)N(Cc2cccc[n+]2CC)C(C)=O)O1.[Cl-]` (centres unmarked) [Compound 9, 2-[N-Acetyl-N-[((5-hexadecyloxymethyl-1,3-dioxolane-2-yl)methoxy)carbonyl]aminomethyl]-1-ethylpyridinium chloride], the IC50 in assay [1] was below 50 nM. Moreover, the ED50 in assay [2] is below 0.05 mg/kg.

The values are drawn from patent publication EP0393512A1, “New 1,3-dioxolane-2-yl derivatives of 2-picolylamine” (J. URIACH & CIA. S.A., priority 1989, dated 1990).
